Experimental data taken from US8859508B2, “Application of 5-methyl-1,3-benzenediol or derivatives thereof in the preparation of medicines and functional foods for treatment or prevention of depression” (Kunming Institute of Botany, Chinese Academy of Sciences, priority 2007, dated 2014).

What was measured:
Sprague-Dawley rats = assay: Forced swim test (FST) in rats; assay type: in vivo, rat; settings: for Immobility time (s) (mean ± SEM): i.g.
DD model mice = assay: FST in constant darkness (DD) model mice; assay type: in vivo, mouse; settings: for Immobility time (s) (mean ± SEM): oral once a day for 1 week
Method: (§1) Kunming mice (Certificate Number: A4CXK(Chuan)2003-16) from the Institute of Experimental Animals, People's Hospital of Sichuan Province, were used. They were 3-4 weeks old at the beginning of the experiments and weighed 25-30 g. ORG was prepared as described in Example 1. Animals were divided into experimental groups with different doses, vehicle control groups, and an imipramine group (Sigma, Batch No. 106k1588) as positive control.
DD model in mice: Mice were kept under 24 h continuous dark conditions. The replacement of padding, addition of food and water, and other operations were undertaken in the condition that the intensity of red light was less than 1.0 lux. The period of this condition lasted for 28 days. In the last week, ORG was administered orally once a day for 1 week. The FST and TST were carried out 30 min after the last administration. Methods and data analysis were as described above.

SD model mice = assay: FST in sleep deprivation (SD) model mice; assay type: in vivo, mouse
Method: as §1, with “experiment” for “experimental”, “doses, a” for “doses,”, “group,” for “groups,”, “1061c1588)” for “106k1588)”
SD model: A modified method with multiple platforms in a water environment was used to establish the SD model in mice. Mice on the platforms were free to eat and drink. However, if it fell asleep, it fell into the water because of the loss of muscle tone. The fallen animal climbed onto the platform again via a tilt pole which propped up the platforms. After 72 h of sleep deprivation, ORG was administered orally 24 h and 5 h before the FST started. The immobility time of animals were recorded. Methods and data analysis were as described above.

rats [1] = assay: Conditioned fear stress-induced freezing behavior test in rats; assay type: in vivo, rat; settings: i.p. 24 h and 5 h before footshocks, re-exposure 24 h later
Method: as §1, with “experiment” for “experiments”, “drug administration” for “experimental”, “doses of ORG, a” for “doses,”, “group,” for “groups,”, “a diazepam” for “an imipramine”, “(Jinyao Ltd. Co.,” for “(Sigma,”
Footshock-induced freezing behavior: Animals received an i.p. injection of ORG or vehicle 24 h and 5 h before being placed in a standard conditioning chamber (Med Associates, USA) for a 10 min training session. Two, 4, 6, 8, and 10 min after the onset of the session, a footshock (0.8 mA, 2 s) was delivered through the grid floor of the chamber. The freezing time during the last 5 min were recorded. Rats were placed in the chamber again without footshock 24 h after the first training, and the freezing time was recorded.
Data analysis: The results of the test are expressed as mean±SEM. One-way ANOVA was used followed by the LSD test with SPSS 11 software. The significance level was set at P<0.05.

[2] = tested on: LTP in the CA1 area of hippocampus; assay: Long-term potentiation (LTP) recording in hippocampal slices of footshock-stressed rats; assay type: cell-based, rat
Method: Rats weighing 250-300 g, from the Institute of Experimental Animals, People's Hospital of Sichuan Province, were used. ORG was prepared as described in Example 1. Fluoxetine was from Wuhan Yuancheng Technology Co. (Wuhan, China; Batch No: 1004-0801002).
Method of long-term potentiation (LTP) recording in hippocampus: Excitatory postsynaptic potentials (EPSPs) in the hippocampus were recorded to determine the anti-stress effect of ORG. Stress impairs LTP in the CAl area of hippocampus, and this can be rescued by anti-stress drugs. Rats were stressed by footshock as follows: 1 mA, 2 s, 5 times at intervals of 2 min. Hippocampal slices were prepared, incubated for 1 h at 34-36° C., and then kept at room temperature. ORG was applied in the bath solution. EPSPs mediated by NMDA and AMPA receptors in the CA1 region were recorded until the baseline was stable for 20 min. Then high frequency stimulation (HFS, 100 Hz, 100 pulses, 20 s interval) was used to induce LTP. The EPSPs were recorded for 1 h after HFS.
Data Analysis: Data are expressed as mean±SEM and LTP is expressed as the percentage of the average amplitude of the last 10 min relative to the baseline. One-way ANOVA was used followed by the LSD test with SPSS 11 software. The significance level was set at P<0.05.

rats [3] = assay: Subacute toxicity test of ORG in rats; assay type: in vivo
Method: Rats (Certificate Number: A4CXK(Chuan)2003-16) from the Institute of Experimental Animals, People's Hospital of Sichuan Province, were used. Their weight was 250-300 g. ORG was prepared as described in Example 1.
There was no significant difference between the two groups.

[4] = 1750 mg/kg orally once per day for 14 consecutive days

Structure (SMILES): Cc1cc(O)cc(OC2OC(CO)C(O)C(O)C2O)c1 [ORG, orcinol-1-O-β-D-glucopyranoside]
- dose of the best efficacy (Sprague-Dawley rats; ORG administered orally): 4 mg/kg
- ED50 (Sprague-Dawley rats; Rattus norvegicus, po, ORG administered orally): ~0.22 mg/kg
- Immobility time (s) (mean ± SEM) (Sprague-Dawley rats; 0.0625 mg/kg, given at 0 and 19 h after pre-test swim): 187.20 ± 11.97 s
- Immobility time (s) (mean ± SEM) (Sprague-Dawley rats; 0.125 mg/kg): 181.50 ± 8.19 s
- Immobility time (s) (mean ± SEM) (Sprague-Dawley rats; 0.1875 mg/kg): 138.90 ± 13.31 s
- Immobility time (s) (mean ± SEM) (Sprague-Dawley rats; 0.25 mg/kg): 121.05 ± 9.44 s
- Immobility time (s) (mean ± SEM) (Sprague-Dawley rats; 0.5 mg/kg): 113.70 ± 6.74 s
- Immobility time (s) (mean ± SEM) (Sprague-Dawley rats; 1 mg/kg): 96.87 ± 7.40 s
- Immobility time (s) (mean ± SEM) (Sprague-Dawley rats; 2 mg/kg): 91.60 ± 7.06 s
- Immobility time (s) (mean ± SEM) (Sprague-Dawley rats; 4 mg/kg): 84.40 ± 9.20 s
- Immobility time (s) (mean ± SEM) (Sprague-Dawley rats; 8 mg/kg): 94.30 ± 9.86 s
- Immobility time (s) (mean ± SEM) (Sprague-Dawley rats; 16 mg/kg): 91.40 ± 11.36 s
- Immobility time (s) (mean ± SEM) (Sprague-Dawley rats; 32 mg/kg): 107.26 ± 10.74 s
- Immobility time (s) (mean ± SEM) (Sprague-Dawley rats; 64 mg/kg): 105.90 ± 19.77 s
- Immobility time (s) (mean ± SEM) (Sprague-Dawley rats; 128 mg/kg): 103.00 ± 17.42 s
- therapeutic index = TD50÷ED50 (DD model mice; DD mice): > 1182
- Immobility time (s) (mean ± SEM) (DD model mice; DD mice, 2.5 mg/kg): 174.27 ± 11.89 s
- Immobility time (s) (mean ± SEM) (DD model mice; DD mice, 5 mg/kg): 161.70 ± 14.89 s
- Immobility time (s) (mean ± SEM) (DD model mice; DD mice, 10 mg/kg): 151.86 ± 8.89 s
- Immobility time (s) (mean ± SEM) (DD model mice; DD mice, 40 mg/kg): 156.60 ± 13.86 s
- Immobility time (s) (mean ± SEM) (DD model mice; DD mice, test 30 min after last dose, 1.25 mg/kg): 180.27 ± 10.36 s
- dose of the best efficacy (DD model mice; DD model mice, ORG oral): 10 mg/kg
- ED50 (DD model mice; Mus musculus, DD model mice, ORG oral): ~1.48 mg/kg
- dose of the best efficacy (SD model mice; FST, SD model mice, ORG oral twice): 10 mg/kg
- ED50 (SD model mice; Mus musculus, FST, SD model mice, ORG oral twice): ~3.79 mg/kg
- therapeutic index = TD50÷ED50 (SD model mice; SD mice, FST): > 462
- Immobility time (s) (mean ± SEM) (SD model mice; SD model mice (72 h sleep deprivation), oral 24 h and 5 h before FST, 1.25 mg/kg): 198.00 ± 11.43 s
- Immobility time (s) (mean ± SEM) (SD model mice; SD model mice, 24 h and 5 h before FST, 7.5 mg/kg): 153.00 ± 11.83 s
- Immobility time (s) (mean ± SEM) (SD model mice; SD model mice, oral 24 h and 5 h before FST, 2.5 mg/kg): 177.67 ± 15.95 s
- Immobility time (s) (mean ± SEM) (SD model mice; SD model mice, oral 24 h and 5 h before FST, 5 mg/kg): 160.80 ± 11.64 s
- Immobility time (s) (mean ± SEM) (SD model mice; SD model mice, oral 24 h and 5 h before FST, 10 mg/kg): 148.23 ± 7.80 s
- Immobility time (s) (mean ± SEM) (SD model mice; SD model mice, oral 24 h and 5 h before FST, 20 mg/kg): 162.67 ± 9.27 s
- Duration of freezing (s) (mean ± SEM) (rats [1]; 5 mg/kg): 310.30 ± 66.19 s
- Duration of freezing (s) (mean ± SEM) (rats [1]; 20 mg/kg): 95.00 ± 17.73 s
- LTP, Average of last 10 min (mean ± SEM) ([2]; control (non-stressed) slices incubated with 5 μM, percentage of average EPSP amplitude of last 10 min relative to baseline): 122.93 ± 3.75
- LTP, Average of last 10 min (mean ± SEM) ([2]; footshock (FS) stressed rat slices incubated with 50 nM, percentage relative to baseline): 128.99 ± 7.30
- LTP, Average of last 10 min (mean ± SEM) ([2]; footshock (FS) stressed rat slices incubated with 5 μM, percentage relative to baseline): 189.56 ± 23.6
- subacute toxicity: appearance, behavior, mental status, appetite, hair, color, breathing (rats [3]; [4]): nothing abnormal was found
- subacute toxicity: survival (rats [3]; [4]): All rats survived
- subacute toxicity: weight gain (rats [3]; [4]): the weight gain was normal
- subacute toxicity: pathological section of visceral organs (rats [3]; 1750 mg/kg orally once per day for 14 days, sacrificed on day 14): no evident abnormalities
